Key:
[1] = tested on: HSV thymidine kinase (TK) gene in cells containing an entrapment mutation in the Hesx1 gene; assay: TK gene loss, selection in gancyclovir; format: cell-based, mouse
[2] = tested on: mouse embryonic stem cell clones, each containing a neomycin resistance gene (Neo) inserted by the GTR1.3 gene trap retrovirus; assay: Carcinogen-induced LOH: frequency of colony formation in 2.0 mg/ml G418; format: cell-based; details: for fold increase of frequency of colony formation: 2 mg/ml G418 0.25 mM HU
Description: Carcinogen-induced LOH was measured in a panel of 53 mouse embryonic stem cell clones, each containing a neomycin resistance gene (Neo) inserted into a different cellular gene (FIG. 9) by the GTR1.3 gene trap retrovirus. Gene entrapment by GTR1.3 involves selection for inserted Neo sequences that can splice to the 3′ ends of cellular genes (Lin et al.,). The disrupted genes were identified by sequencing Neo-gene fusion transcripts and were localized on the mouse genome. Previous studies have shown that cells homozygous for GTR1.3-induced mutations can be selected from heterozygous cells simply by selecting for resistance to higher concentrations of G418, a method first shown to select for homozygous mutations induced by gene targeting (15). Mitotic recombination appears to be the preferred mechanism of spontaneous LOH involving Neo genes inserted in ES cells (17) and LOH involving other genes and cell types in vivo (12, 13). LOH doubles the number of Neo genes per cell and thus allows moderately resistant cells to acquire resistance to higher concentrations of G418. The frequencies of spontaneous LOH measured at the 53 different sites ranged from 1.3×10^−5 to 1.2×10^−4 (Table 3), similar to those reported for other inserted neomycin resistance genes (15, 17) in ES cells and for loci such as TK and APRT in other cell types (12, 13).
A variety of chemical agents were tested for their ability to enhance the frequencies at which mutant cells survive in 2.0 mg/ml G418. Methyl-nitrosurea (MNU) is an alkylating agent that produces a variety of mono-methylated DNA adducts, hydroxyurea (HU) stalls DNA replication complexes, doxorubicin interferes with DNA synthesis, methothrexate is a competitive inhibitor of dihydrofolate reductase but is not genotoxic, diepoxybutane and mitomycin C induce inter-strand DNA crosslinks, UV irradiation causes intra- and inter-strand pyrimidine dimmers, and ethidium bromide intercalates between DNA strands to damage DNA (For additional information about these agents see http://toxnet.nlm.nih.gov and http://lisntweb.swan.ac.uk/cmgt/index.htm). […] The fold-increase for MNU and HU ranged from 39-123 and 18-68, respectively (Table 3). The optimal concentrations of each agent to stimulate colony formation with minimal toxicity (<5% loss of cell viability) were determined in advance (FIG. 13). […] Each of these agents was tested two or more times on at least 25 entrapment lines.
Serially diluted cells were plated onto 150 mm plates containing drug-free media and allowed to attach overnight. Unattached cells were removed and media containing the indicated concentrations of methyl-nitrosourea, hydroxyurea, ethidium bromide, doxorubicin, methotrexate, diepoxybutane, or mitomycin C was put onto cells for 4 hours (or cells were exposed to ultraviolet light in the absence of media and allowed to recover in drug-free media for 4 hours). Cells were then rinsed twice with drug-free media and selection media containing 0.0, 0.3, or 2.0 mg/ml G418 was put onto cells. After 12 days of selection, the number of colonies surviving was counted and the frequency of colony formation was determined by dividing the number of colonies obtained from 2.0 mg/ml G418 selection to that obtained from parallel experiments with 0.3 mg/ml G418 selection. TK gene loss was assessed following selection in media containing 2 μg/ml gancyclovir.
Table 3. The frequency of colony formation in high concentrations of G418. The frequency of colony formation is listed for all 53 clones examined. Frequency was determined by dividing the number of colonies surviving 2.0 mg/ml G418 selection to the number surviving parallel experiments with 0.3 mg/ml G418 selection, and is the average of at least 3 independent experiments for each clone. Standard deviations, which ranged from 5 to 70% of the mean values, have been omitted for clarity. […]

## NC(=O)NO [HU, hydroxyurea]
[1]; Table 2, C8TK1sN and C8TK1hN, Treatment none
  Ratio of Freq. TK loss: 0.6
[1]; Table 4, clone printed C8TK1hN (EL LOH induced by HU), Treatment HU
  Freq. TK loss: 4.9 × 10^−4
[1]; Table 4, clone printed C8TK1hN (EL LOH induced by HU, TK+ EL−/−), Treatment none
  Freq. TK loss: 1.2 × 10^−5
[1]; Table 4, clone printed C8TK1sN (Spont. EL LOH), Treatment HU
  Freq. TK loss: 2.8 × 10^−4
[1]; Table 4, printed C8TK1sN and C8TK1hN, Treatment HU
  Ratio of Freq. TK loss: 1.8
[1]; Table 4, printed C8TK1sN and C8TK1hN, Treatment none
  Ratio of Freq. TK loss: 2.3
[2]; 0.25 mM HU, Table 3 clones
  fold-increase of colonies surviving in high G418, range over clones: 18-68 fold
[2]; 0.5 mM MNU or 0.25 mM HU (FIG. 10)
  number of colonies surviving in high G418: dramatically increased
[2]; clone b2p1-a5 (12C3)
  fold increase of frequency of colony formation: (+35-fold)
[2]; clone b2p1-a9 (2H1)
  fold increase of frequency of colony formation: (+36-fold)
[2]; clone b2p1-b4 (9E1)
  fold increase of frequency of colony formation: (+32-fold)
[2]; clone b2p1-b9 (4B1)
  fold increase of frequency of colony formation: (+38-fold)
[2]; clone b2p1-c6 (19A)
  fold increase of frequency of colony formation: (+22-fold)
[2]; clone b2p1-d3 (19C1)
  fold increase of frequency of colony formation: (+28-fold)
[2]; clone b2p1-d8 (4D2.3)
  fold increase of frequency of colony formation: (+40-fold)
[2]; clone b2p1-d9 (7E3)
  fold increase of frequency of colony formation: (+38-fold)
[2]; clone b2p1-d10 (9A1)
  fold increase of frequency of colony formation: (+19-fold)
[2]; clone b2p1-e3 (4D2.3)
  fold increase of frequency of colony formation: (+32-fold)
[2]; clone b2p1-e10 (19C1)
  fold increase of frequency of colony formation: (+25-fold)
[2]; clone b2p1-f3 (17E1.3)
  fold increase of frequency of colony formation: (+47-fold)
[2]; clone b2p1-f10 (3F2.1)
  fold increase of frequency of colony formation: (+33-fold)
[2]; clone b2p1-f12 (1H5)
  fold increase of frequency of colony formation: (+25-fold)
[2]; clone b2p1-h1 (7A2)
  fold increase of frequency of colony formation: (+21-fold)
[2]; clone b2p1-h5 (1H5)
  fold increase of frequency of colony formation: (+42-fold)
[2]; clone b2p1-h8 (6A3.3)
  fold increase of frequency of colony formation: (+42-fold)
[2]; clone b3p1-h1 (18E2)
  fold increase of frequency of colony formation: (+42-fold)
[2]; clone b3p3-a4 (4A5)
  fold increase of frequency of colony formation: (+33-fold)
[2]; clone b3p3-a9 (4A5)
  fold increase of frequency of colony formation: (+18-fold)
[2]; clone b3p3-b6 (3F1)
  fold increase of frequency of colony formation: (+18-fold)
[2]; clone b3p3-c8 (14A3)
  fold increase of frequency of colony formation: (+32-fold)
[2]; clone b3p3-c12 (5G2)
  fold increase of frequency of colony formation: (+20-fold)
[2]; clone b3p3-d4 (1C3)
  fold increase of frequency of colony formation: (+28-fold)
[2]; clone b3p3-d8 (1C2)
  fold increase of frequency of colony formation: (+68-fold)
[2]; clone b3p3-d9 (4E2)
  fold increase of frequency of colony formation: (+22-fold)
[2]; clone b3p3-g6 (10C2)
  fold increase of frequency of colony formation: (+29-fold)
[2]; clone b3p3-g10 (4E1)
  fold increase of frequency of colony formation: (+24-fold)
[2]; clone b3p3-h2 (19C1)
  fold increase of frequency of colony formation: (+26-fold)
[2]; clone b3p3-h4 (5E2)
  fold increase of frequency of colony formation: (+50-fold)
[2]; clone b3p3-h8 (19A)
  fold increase of frequency of colony formation: (+37-fold)
[2]; clone b3p4-a1 (4A4)
  fold increase of frequency of colony formation: (+25-fold)
[2]; clone b3p4-a5 (3B)
  fold increase of frequency of colony formation: (+36-fold)
[2]; clone b3p4-b1 (3A2)
  fold increase of frequency of colony formation: (+44-fold)
[2]; clone b3p4-b2 (11B1.3)
  fold increase of frequency of colony formation: (+40-fold)
[2]; clone b3p4-b8 (4C6)
  fold increase of frequency of colony formation: (+27-fold)
[2]; clone b3p4-b12 (3A1)
  fold increase of frequency of colony formation: (+24-fold)
[2]; clone b3p4-c1 (17B3)
  fold increase of frequency of colony formation: (+50-fold)
[2]; clone b3p4-c2 (8C3)
  fold increase of frequency of colony formation: (+50-fold)
[2]; clone b3p4-c9 (15F2)
  fold increase of frequency of colony formation: (+20-fold)
[2]; clone b3p4-c12 (17E2)
  fold increase of frequency of colony formation: (+33-fold)
[2]; clone b3p4-d10 (14E5)
  fold increase of frequency of colony formation: (+54-fold)
[2]; clone b3p4-d12 (1C3)
  fold increase of frequency of colony formation: (+51-fold)
[2]; clone b3p4-e1 (2G3)
  fold increase of frequency of colony formation: (+32-fold)
[2]; clone b3p4-e3 (15D3)
  fold increase of frequency of colony formation: (+41-fold)
[2]; clone b3p4-e7 (12C1)
  fold increase of frequency of colony formation: (+44-fold)
[2]; clone b3p4-f2 (4E1)
  fold increase of frequency of colony formation: (+36-fold)
[2]; clone b3p4-f6 (7E3)
  fold increase of frequency of colony formation: (+26-fold)
[2]; clone b3p4-f10 (8A4)
  fold increase of frequency of colony formation: (+36-fold)
[2]; clone b3p4-g3 (1C3)
  fold increase of frequency of colony formation: (+34-fold)
[2]; clone b3p4-g8 (10C1)
  fold increase of frequency of colony formation: (+34-fold)
[2]; clone b3p4-g9 (2C2)
  fold increase of frequency of colony formation: (+32-fold)
[2]; clone b3p4-h11 (8A1.1)
  fold increase of frequency of colony formation: (+33-fold)
[2]; ES cells heterozygous for Xrcc5 entrapment mutation, 4 hours with 0.5 mM methyl-nitrosourea, 0.25 mM hydroxyurea or 100 ng/ml diepoxybutane
  survival of mutant ES cells in media containing 2.0 mg/ml G418: enhances the survival
[2]; single exposure to non-toxic levels
  overall extent of LOH induced: ~1 % of the genome

Reference: patent publication US20100021895A1, “Vectors for Inducing Homozygous Mutations and Methods of Using Same” (priority 2006, published 2010)
